Reference: patent publication US8846330B2, “Methods and kits for the diagnosis of RyR1-related diseases” (The Henry M. Jackson Foundation for the Advancement of …, priority 2008, dated 2014)

System: lymphocyte cells
Test: 4CmC-induced adenosine plus inosine in cultured swine lymphocytes (Example 2)
Type: cell-based
Conditions: for adenosine plus inosine level upon stimulation with 4CmC, mean±SEM: 5 mM 4CmC
Description: Lymphocyte cells were isolated from whole arterial blood sample (40 ml) obtained from homozygous recessive MHS (n=5) and normal (n=3) swine by the Ficoll-Hypaque centrifugation technique. Lymphocyte cells were then cultured in RPMI-1640 media supplemented with 10% fetal bovine serum plus 100 units/liter penicillin at 37° C. under 5% CO2 for 2 to 3 weeks. After cell culture period, cell's (5−15×10^4 cells) were suspended in Hanks' balanced salt solution (HBSS)+1% bovine serum albumin and treated with specific RyR1 agonist 4-chloro-m-cresol (4CmC, 5 mM) at 37° C. in the presence and absence of inhibitor of adenosine deaminase erythro-9-(2-hydroxy-3-nonyl) adenine (EHNA, 0.1 mM) for 30 minutes. After purification using 12% HClO4 followed by centrifugation (10 minutes, 4000 RPM), aliquot of sample (50 μl) was assayed for adenosine and inosine content using high performance liquid chromatography (HPLC). Data are normalized to per 1 million cells, compared using one way ANOVA, and presented as mean±SEM. P<0.05 considered significant.

## Cc1cc(O)ccc1Cl [4CmC, 4-chloro-m-cresol]
MHS swine (n=5)
  adenosine plus inosine level upon stimulation with 4CmC, mean±SEM: 8.06 ± 0.9 µM
Normal swine (n=3)
  adenosine plus inosine level upon stimulation with 4CmC, mean±SEM: 1.16 ± 0.3 µM
Lymphocytes from MHS swine
  increase of nucleoside production on 4CmC stimulation: nine-fold increase
Lymphocytes from normal swine
  effect of 4CmC stimulation on nucleoside (adenosine plus inosine) production: minimal, if any, effect
